Molecules are shown by their SMILES. Where “and” joins values, the source holds several entries; their conditions need not be identical. Equal entries are not always repeated.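 Where inhibition never reached the appropriate level, the endpoint shown equals the highest concentration tested. Otherwise, values were interpolated linearly from a five-concentration, 48-hour dose response in 96-well plates. GI50 is the concentration that inhibits growth by half. TGI: concentration producing complete growth inhibition.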

For one assay, the system named is SF-268 CNS. Put plainly: DTP human tumour cell line panel, 48 h.
Broadly, the TGI is the concentration giving total growth inhibition. Read a low TGI as greater sensitivity of the cells. As to `COc1cc2ccc3c4cc(OC)c(OC(C)C)cc4cnc3c2cc1OC`, the TGI is over 100 µM.
In general, GI50 refers to the concentration that inhibits growth by half. Consider `C1C[OH+]CCNCC[OH+]CC[OH+]CCN1.[Cl-].[Pt+4]`, for which the GI50 is over 100 µM and the TGI is over 100 µM.
Turning to `CC(=O)c1sc(-c2nc(C)c(C(=O)/C=C\c3ccc(/C=C\C(=O)c4sc(-c5nc(C)c(C(C)=O)s5)nc4C)cc3)s2)nc1C`, the TGI is over 100 µM.
`COC(=O)/C(C)=C/[N+](=O)[O-]` had a TGI of 51.6 µM.
The same measure, in the same setting: under `Cc1ccc(C2(O)CC(c3ccc([N+](=O)[O-])o3)=NN2C(=O)COc2ccc(Cl)cc2)cc1` (centres undefined) stands 28.1 µM; under `CC1=NN(C(=O)CC(=O)N(C(=O)c2ccccc2Cl)c2ccc(C)cc2)C(=O)C1N=Nc1ccc([N+](=O)[O-])cc1` (centres undefined), over 100 µM.
In turn, `COc1cccc(-n2c3nc(=O)n(C)c(=O)c-3nc3ccccc32)c1` displayed a TGI of 53.9 µM.
Compound `CC(C)(C=O)CC(C#N)/C(=N\NC(N)=O)C(=O)Nc1ccccc1C(N)=O` (centres undefined) came in with a total growth inhibition concentration (TGI) of over 100 µM.
On the same count and under the same terms, the same measure for `Cc1cc(C)c(C2[C@H]3C(=O)N(c4ccc(Cc5ccc(N6C(=O)[C@@H]7ON(c8ccccc8)C(c8c(C)cc(C)cc8C)[C@@H]7C6=O)cc5)cc4)C(=O)[C@H]3ON2c2ccccc2)c(C)c1` (some centres undefined): over 100 µM; for `COC(=O)OCC1OC(N2C(=O)NC(=O)C(Br)C2N=[N+]=[N-])CC1OC(=O)OC` (centres undefined): over 100 µM; for `CC12CCCCC1(C)C2Sc1ccccc1` (centres undefined): over 100 µM.
Same read-out and setting: under `CCCCOC(=O)NC(=O)c1cn(CCCOC(=O)NCCCCCCNC(=O)OCCCn2cc(C(=O)NC(=O)OCCCC)c(=O)[nH]c2=O)c(=O)[nH]c1=O` stands over 100 µM; under `C[C@@]12CCCc3coc(c31)C(=O)c1cc3c(cc12)C(=O)C=CC3=O`, over 1 µM; under `COc1cc(C)c2c(c1C)OC(=O)c1c(C)c(Cl)c(O)c(C=O)c1O2`, 65.1 µM.
With `C=CCNC(=O)N(CCC)CCCCC(NC(C)=O)C(=O)NCc1ccccc1` (centres undefined), the TGI was over 100 µM.
As for `COC(=O)/C(C=O)=C/Sc1ccccc1`, the TGI is 33 µM.
For `Nc1ccn(C2(CO)C=C(CO)C(O)C2O)c(=O)n1` (centres undefined), the TGI was over 25.8 µM.
On to `C=C1C[C@]23CCC4C(C)(C)C(=O)CC[C@]4(C)C2C[C@H]1C(O)C3=O` (some centres undefined), for which the TGI was over 75 µM.
For `CC1(C)O/C(=C\c2ccccc2)C(=O)/C(=C/c2ccccc2)O1`, the TGI was over 100 µM.
Compound `O=C1CC2C(=O)N(Cc3ccccc3)C1C=C2S(=O)(=O)c1ccccc1` (centres undefined) yielded a TGI of over 100 µM.
For the compound `N.N.N.N.[Cl-].[Co+3].[N-]=[N+]=[N-].[N-]=[N+]=[N-]`, the GI50 was 81.6 µM and the TGI was over 100 µM.
`O=c1[nH]c2cc(Cl)ccc2nc1/C(=N\O)C(O)c1ccc(Cl)cc1Cl` (centres undefined) displayed a TGI of over 100 µM.
`CC(C)CCCC(C)[C@H]1CCC2[C@H]3C(CC[C@@]21C)[C@@]1(C)CCC=C[C@]12C[C@@H]2[C@@H]3O` (some centres undefined) displayed a TGI of over 100 µM.
Compound `Nc1nc(CCl)nc(Nc2ccccc2)n1` gave a TGI of 45.2 µM.
For the compound `C=C1C(=O)O[C@H]2/C=C(/C)C3=CC(=O)[C@@](C)(C[C@@H](OC(=O)/C(C)=C\C)C12)O3` (some centres undefined), the TGI is over 46.5 µM.

The next assay relates to TK-10 renal. Put plainly: DTP human tumour cell line panel, 48 h.
On to `COc1cc2ccc3c4cc(OC)c(OC(C)C)cc4cnc3c2cc1OC`, for which the TGI was over 100 µM.
Consider `CN1NC(=Nc2ccccc2)Sc2c1cnn(-c1ccccc1)c2=O`, for which the TGI was over 100 µM.
Turning to `C1C[OH+]CCNCC[OH+]CC[OH+]CCN1.[Cl-].[Pt+4]`, the GI50 is over 100 µM and the TGI was over 100 µM.
`CC(=O)c1sc(-c2nc(C)c(C(=O)/C=C\c3ccc(/C=C\C(=O)c4sc(-c5nc(C)c(C(C)=O)s5)nc4C)cc3)s2)nc1C` returned a total growth inhibition concentration (TGI) of over 100 µM.
In turn, `COC(=O)/C(C)=C/[N+](=O)[O-]` had a TGI of 31.1 µM.
Consider `Cc1ccc(C2(O)CC(c3ccc([N+](=O)[O-])o3)=NN2C(=O)COc2ccc(Cl)cc2)cc1` (centres undefined), for which the TGI turned out to be 38.4 µM.
In the case of `CC1=NN(C(=O)CC(=O)N(C(=O)c2ccccc2Cl)c2ccc(C)cc2)C(=O)C1N=Nc1ccc([N+](=O)[O-])cc1` (centres undefined), the TGI was over 100 µM.
The compound `COc1cccc(-n2c3nc(=O)n(C)c(=O)c-3nc3ccccc32)c1` gave a TGI of over 100 µM.
Take `CC(C)(C=O)CC(C#N)/C(=N\NC(N)=O)C(=O)Nc1ccccc1C(N)=O` (centres undefined): the TGI is over 100 µM.
As for `Cc1cc(C)c(C2[C@H]3C(=O)N(c4ccc(Cc5ccc(N6C(=O)[C@@H]7ON(c8ccccc8)C(c8c(C)cc(C)cc8C)[C@@H]7C6=O)cc5)cc4)C(=O)[C@H]3ON2c2ccccc2)c(C)c1` (some centres undefined), the TGI is over 100 µM.
Compound `COC(=O)OCC1OC(N2C(=O)NC(=O)C(Br)C2N=[N+]=[N-])CC1OC(=O)OC` (centres undefined) came in with a total growth inhibition concentration (TGI) of over 100 µM.
For the compound `CC12CCCCC1(C)C2Sc1ccccc1` (centres undefined), the TGI is over 100 µM.
In the case of `CCCCOC(=O)NC(=O)c1cn(CCCOC(=O)NCCCCCCNC(=O)OCCCn2cc(C(=O)NC(=O)OCCCC)c(=O)[nH]c2=O)c(=O)[nH]c1=O`, the TGI was over 100 µM.
For `C[C@@]12CCCc3coc(c31)C(=O)c1cc3c(cc12)C(=O)C=CC3=O`, the GI50 is over 1 µM; the TGI was > 1 µM and 35.8 µM.
Take `COc1cc(C)c2c(c1C)OC(=O)c1c(C)c(Cl)c(O)c(C=O)c1O2`: the TGI was over 100 µM.
`C=CCNC(=O)N(CCC)CCCCC(NC(C)=O)C(=O)NCc1ccccc1` (centres undefined) gave a TGI of over 100 µM.
`COC(=O)/C(C=O)=C/Sc1ccccc1` showed a TGI of over 100 µM.
Same read-out and setting: the same measure for `Nc1ccn(C2(CO)C=C(CO)C(O)C2O)c(=O)n1` (centres undefined): over 25.8 µM; for `CC1(C)O/C(=C\c2ccccc2)C(=O)/C(=C/c2ccccc2)O1`: over 100 µM.
Still for that read-out and setting: under `O=C1CC2C(=O)N(Cc3ccccc3)C1C=C2S(=O)(=O)c1ccccc1` (centres undefined) stands over 100 µM.
Turning to `N.N.N.N.[Cl-].[Co+3].[N-]=[N+]=[N-].[N-]=[N+]=[N-]`, the GI50 was over 100 µM and the TGI is over 100 µM.
As for `CC(C)CCCC(C)[C@H]1CCC2[C@H]3C(CC[C@@]21C)[C@@]1(C)CCC=C[C@]12C[C@@H]2[C@@H]3O` (some centres undefined), the TGI was over 100 µM.
For `Nc1nc(CCl)nc(Nc2ccccc2)n1`, the TGI turned out to be 83.4 µM.
Same read-out and setting: under `CN[C@@H](C)[C@H](NC)c1ccccc1` stands over 100 µM.
In turn, `C=C1C(=O)O[C@H]2/C=C(/C)C3=CC(=O)[C@@](C)(C[C@@H](OC(=O)/C(C)=C\C)C12)O3` (some centres undefined) registered a TGI of 1.6 µM.
As to `O=S1OC2(c3ccccc3-c3ccccc32)c2ccccc21` (centres undefined), the TGI was over 100 µM.

A further assay deals with 786-0 renal. Put plainly: DTP human tumour cell line panel, 48 h.
As for `COc1cc2ccc3c4cc(OC)c(OC(C)C)cc4cnc3c2cc1OC`, the TGI is over 100 µM.
Same read-out and setting: the same measure for `CN1NC(=Nc2ccccc2)Sc2c1cnn(-c1ccccc1)c2=O`: over 100 µM.
In the case of `C1C[OH+]CCNCC[OH+]CC[OH+]CCN1.[Cl-].[Pt+4]`, the GI50 is over 100 µM and the TGI is over 100 µM.
In turn, `CC(=O)c1sc(-c2nc(C)c(C(=O)/C=C\c3ccc(/C=C\C(=O)c4sc(-c5nc(C)c(C(C)=O)s5)nc4C)cc3)s2)nc1C` had a TGI of over 100 µM.
The compound `COC(=O)/C(C)=C/[N+](=O)[O-]` returned a TGI of 32.3 µM.
The compound `Cc1ccc(C2(O)CC(c3ccc([N+](=O)[O-])o3)=NN2C(=O)COc2ccc(Cl)cc2)cc1` (centres undefined) had a TGI of 18 µM.
Still for that read-out and setting: the same measure for `CC1=NN(C(=O)CC(=O)N(C(=O)c2ccccc2Cl)c2ccc(C)cc2)C(=O)C1N=Nc1ccc([N+](=O)[O-])cc1` (centres undefined): over 68.5 µM.

The values above are taken from PubChem BioAssay (NCI).
